Data taken from publication PMC11663113 (Cell chemical biology, 2024).

How the values were obtained:
[1] = tested on: A549 human non-small cell lung carcinoma (NSCLC) cells; type: cell-based; settings: three days, same conditions as compound 11
CamA = type: biochemical
CcrM = CcrM (Caulobacter vibrioides, UniProt P0CAW2); type: biochemical
human DNMT1 = human DNMT1 (Homo sapiens, UniProt P26358); test: biochemical
DNMT3A2–3L complex = DNMT3A2–3L complex (Homo sapiens, UniProt Q9Y6K1); type: biochemical; settings: [E]/[DNA] 1:2 versus 1:10, 10 μM
Pol η = target: T1, Pol η (Homo sapiens, UniProt Q9Y253); test: Pol η nucleotide incorporation assay; type: biochemical
T1 sequence (Q9Y253 1-432 limits assumed): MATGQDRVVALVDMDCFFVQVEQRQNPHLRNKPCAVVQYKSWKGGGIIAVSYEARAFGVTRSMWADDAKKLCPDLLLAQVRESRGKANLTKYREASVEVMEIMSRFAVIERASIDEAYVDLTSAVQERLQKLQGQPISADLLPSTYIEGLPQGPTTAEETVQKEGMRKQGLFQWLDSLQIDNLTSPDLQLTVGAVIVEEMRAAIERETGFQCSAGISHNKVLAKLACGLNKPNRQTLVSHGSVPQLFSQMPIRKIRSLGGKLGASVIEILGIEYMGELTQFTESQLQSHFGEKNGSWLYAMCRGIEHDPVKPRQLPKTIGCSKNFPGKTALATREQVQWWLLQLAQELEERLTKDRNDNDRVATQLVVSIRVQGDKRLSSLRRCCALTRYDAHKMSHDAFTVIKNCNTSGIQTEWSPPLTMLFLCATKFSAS

MBD4 = target: T2, MBD4 (Mus musculus, UniProt Q9Z2D7); type: biochemical; settings: inhibitor 2 μM
T2 sequence (Q9Z2D7 411-554 limits assumed): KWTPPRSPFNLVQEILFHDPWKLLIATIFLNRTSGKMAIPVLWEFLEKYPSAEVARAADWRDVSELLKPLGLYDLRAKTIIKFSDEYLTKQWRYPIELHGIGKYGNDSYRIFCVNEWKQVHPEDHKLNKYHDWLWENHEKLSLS

Pol θ = type: biochemical, Human; settings: 50 μM
Dam = Dam (Escherichia coli, UniProt P0AEE8); type: biochemical
MYH = target: T3, MYH (Mus musculus, UniProt Q99P21); type: biochemical; settings: inhibitor 2 μM
T3 sequence (Q99P21 1-515): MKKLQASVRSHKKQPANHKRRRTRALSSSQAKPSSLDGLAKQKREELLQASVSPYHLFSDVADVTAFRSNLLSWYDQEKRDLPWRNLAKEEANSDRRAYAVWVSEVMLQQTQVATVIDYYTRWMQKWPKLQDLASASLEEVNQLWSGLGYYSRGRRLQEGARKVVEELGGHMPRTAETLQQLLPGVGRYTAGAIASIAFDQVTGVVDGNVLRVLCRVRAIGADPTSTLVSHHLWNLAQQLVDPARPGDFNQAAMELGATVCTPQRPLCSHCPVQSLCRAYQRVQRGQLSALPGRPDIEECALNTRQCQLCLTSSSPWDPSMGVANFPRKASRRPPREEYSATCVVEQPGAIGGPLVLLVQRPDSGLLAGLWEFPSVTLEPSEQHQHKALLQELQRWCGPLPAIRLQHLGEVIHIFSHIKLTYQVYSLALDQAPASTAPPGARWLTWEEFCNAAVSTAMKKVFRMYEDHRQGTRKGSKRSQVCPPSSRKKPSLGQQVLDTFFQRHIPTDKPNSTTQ

TDG = TDG (Homo sapiens, UniProt Q13569); type: biochemical
Chain of TDG (Q13569 whole entry): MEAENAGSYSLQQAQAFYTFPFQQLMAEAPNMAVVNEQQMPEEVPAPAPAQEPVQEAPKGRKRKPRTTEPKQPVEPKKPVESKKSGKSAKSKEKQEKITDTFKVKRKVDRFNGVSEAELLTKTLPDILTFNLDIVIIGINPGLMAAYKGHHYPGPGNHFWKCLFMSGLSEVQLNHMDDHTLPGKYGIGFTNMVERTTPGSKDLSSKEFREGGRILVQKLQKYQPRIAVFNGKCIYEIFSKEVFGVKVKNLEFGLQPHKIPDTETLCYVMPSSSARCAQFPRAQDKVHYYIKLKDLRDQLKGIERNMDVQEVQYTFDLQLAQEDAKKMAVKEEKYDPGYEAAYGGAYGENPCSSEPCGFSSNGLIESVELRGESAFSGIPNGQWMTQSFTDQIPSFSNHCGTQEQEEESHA

Chain of human DNMT1 (P26358 350-1600): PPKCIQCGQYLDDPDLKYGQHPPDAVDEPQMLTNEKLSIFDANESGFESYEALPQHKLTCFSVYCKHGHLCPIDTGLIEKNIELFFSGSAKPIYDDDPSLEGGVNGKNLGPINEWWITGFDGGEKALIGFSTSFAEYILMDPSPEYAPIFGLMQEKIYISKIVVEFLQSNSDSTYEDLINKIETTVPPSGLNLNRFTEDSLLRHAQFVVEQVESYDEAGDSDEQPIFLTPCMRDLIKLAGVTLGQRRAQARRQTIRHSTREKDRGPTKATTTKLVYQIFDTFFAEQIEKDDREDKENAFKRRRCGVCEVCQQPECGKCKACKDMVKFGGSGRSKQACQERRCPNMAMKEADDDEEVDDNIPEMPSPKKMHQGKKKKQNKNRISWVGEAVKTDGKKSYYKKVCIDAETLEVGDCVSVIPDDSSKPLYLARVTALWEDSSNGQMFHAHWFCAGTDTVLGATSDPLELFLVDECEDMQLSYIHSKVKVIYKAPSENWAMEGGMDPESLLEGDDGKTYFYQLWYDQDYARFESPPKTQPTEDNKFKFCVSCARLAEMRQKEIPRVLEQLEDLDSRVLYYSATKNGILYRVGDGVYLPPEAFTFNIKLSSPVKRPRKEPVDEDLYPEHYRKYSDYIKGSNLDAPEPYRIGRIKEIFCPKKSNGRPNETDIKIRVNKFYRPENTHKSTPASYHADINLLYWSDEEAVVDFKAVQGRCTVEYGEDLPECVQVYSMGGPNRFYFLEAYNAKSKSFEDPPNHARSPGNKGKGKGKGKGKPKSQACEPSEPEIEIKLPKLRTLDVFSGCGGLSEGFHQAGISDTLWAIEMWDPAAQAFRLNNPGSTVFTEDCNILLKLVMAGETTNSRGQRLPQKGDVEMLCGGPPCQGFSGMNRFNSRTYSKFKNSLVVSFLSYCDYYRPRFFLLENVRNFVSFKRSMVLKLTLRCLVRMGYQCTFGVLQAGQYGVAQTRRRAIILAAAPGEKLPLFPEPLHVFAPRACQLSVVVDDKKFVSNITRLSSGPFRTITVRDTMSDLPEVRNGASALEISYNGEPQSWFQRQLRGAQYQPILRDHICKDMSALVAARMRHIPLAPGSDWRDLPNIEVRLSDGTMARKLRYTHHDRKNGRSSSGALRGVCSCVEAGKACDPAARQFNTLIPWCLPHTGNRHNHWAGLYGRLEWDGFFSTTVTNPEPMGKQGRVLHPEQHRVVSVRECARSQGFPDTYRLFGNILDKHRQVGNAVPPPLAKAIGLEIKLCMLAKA
Chain of CcrM (P0CAW2 whole entry): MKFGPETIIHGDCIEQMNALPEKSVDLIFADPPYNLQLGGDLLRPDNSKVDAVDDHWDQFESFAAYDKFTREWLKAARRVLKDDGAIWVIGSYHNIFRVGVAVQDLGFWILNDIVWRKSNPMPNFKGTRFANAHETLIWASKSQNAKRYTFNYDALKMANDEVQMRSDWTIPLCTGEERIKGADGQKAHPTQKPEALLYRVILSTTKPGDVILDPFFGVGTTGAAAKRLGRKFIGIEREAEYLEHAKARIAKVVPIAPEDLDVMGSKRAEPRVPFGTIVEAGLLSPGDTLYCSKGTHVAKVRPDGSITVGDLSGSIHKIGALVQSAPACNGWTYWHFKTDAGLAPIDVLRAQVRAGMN
Chain of Dam (P0AEE8 whole entry): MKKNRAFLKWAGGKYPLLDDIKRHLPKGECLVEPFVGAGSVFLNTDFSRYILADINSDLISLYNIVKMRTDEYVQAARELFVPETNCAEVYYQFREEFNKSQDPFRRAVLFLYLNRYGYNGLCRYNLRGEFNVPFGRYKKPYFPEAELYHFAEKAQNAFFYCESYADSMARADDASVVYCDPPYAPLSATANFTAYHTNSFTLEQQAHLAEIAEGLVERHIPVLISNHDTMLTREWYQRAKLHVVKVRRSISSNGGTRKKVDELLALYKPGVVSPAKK

Compound: CCc1c(C#N)c(SC(C(N)=O)c2ccccc2)nc(N(C)C)c1C#N (centres unmarked) [GSK3484862]
- A549 cell viability / toxicity (in words) [1]: viabilities similar to control cells

Compound: OC[C@H]1O[C@@H](n2cnc3c(NCCCc4ccccc4)ncnc32)[C@H](O)[C@@H]1O [MC4741, (2R,3S,4R,5R)-2-(Hydroxymethyl)-5-(6-((3-phenylpropyl)-amino)-9H-purin-9-yl)tetrahydrofuran-3,4-diol]
- IC50 (CamA; read-out: IC50 against CamA): 700 nM

Compound: Nc1ncnc2c1ncn2[C@@H]1O[C@H](C[C@@H](N)CC[C@H](N)C(=O)O)[C@@H](O)[C@H]1O [sinefungin]
- inhibition of CcrM (in words) (CcrM): significant inhibition
- inhibition at 10 µM (human DNMT1; read-out: inhibition of DNMT1): ~50%
- inhibition of CamA (in words) (CamA): limited inhibition
- change of DNMT3A2–3L inhibition as a function of DNA substrate concentration (DNMT3A2–3L complex): did not change
- impact on Pol η polymerase activity (in words) (Pol η; 10 μM): no impact on polymerase activity

Compound: Cc1cc(Nc2ccc(NC(=O)c3ccc(Nc4ccnc5ccccc45)cc3)cc2)nc(N)n1 [Compound 1]
- inhibition of MBD4 activity on T:G mismatch (MBD4): do not exhibit effective inhibition
- inhibition of MBD4 activity on U:G mismatch (MBD4): do not exhibit effective inhibition
- inhibition of Pol θ activity (Pol θ): ~ 50%
- inhibition of Dam (in words) (Dam): no inhibitory effect at all
- inhibition of CcrM (in words) (CcrM): no inhibitory effect at all
- inhibition of MYH excision of adenine opposite 8-oxoG (MYH): do not exhibit effective inhibition
- inhibition of DNMT1 (human DNMT1; 10 μM compound, [E]/[DNA]=1:10): ~ 70%
- inhibition of CamA (CamA; 10 μM): less than 50%
- inhibition of TDG activity on T:G mismatch (TDG): do not exhibit effective inhibition
- inhibition of Pol η activity (Pol η; 10 μM compound): more than 50%
